In ChEMBL document CHEMBL3045294, “Synthesis, anticonvulsant and toxicity screening of thiazolylthiadiazole derivatives” (Med Chem Res, 2011):
Active and inactive are the calls of the source. The calls are words filed in the database; no cut-off is given here.

Legend:
[1] = (§1) Neurotoxicity in ip dosed Mus musculus albino (mouse) after 4 hr rotorod test; type: toxicity, organism-based; settings: albino, in vivo
[2] = (§2) Neurotoxicity in ip dosed Mus musculus albino (mouse) after 0.5 hr rotorod test; type: toxicity, organism-based; settings: albino, in vivo
Mus musculus [3] = test: Anticonvulsant activity in ip dosed Mus musculus albino (mouse) assessed as protection against maximal electroshock-induced seizures after 4 hr; type: functional; settings: read-out: MED
Mus musculus [4] = test: Anticonvulsant activity in ip dosed Mus musculus albino (mouse) assessed as protection against maximal electroshock-induced seizures after 0.5 hr; type: functional; settings: read-out: MED
Mus musculus [5] = test: Anticonvulsant activity in ip dosed Mus musculus albino (mouse) assessed as protection against subcutaneous pentylenetetrazol-induced seizures after 0.5 hr; type: functional; settings: read-out: MED
Mus musculus [6] = test: Anticonvulsant activity in ip dosed Mus musculus albino (mouse) assessed as protection against subcutaneous pentylenetetrazol-induced seizures after 4 hr; type: functional; settings: read-out: MED
Mus musculus [7] = test: as §2; type: toxicity, organism-based; settings: in vivo, 0.5 h
Mus musculus [8] = test: Anticonvulsant activity in Mus musculus albino (mouse) assessed as protection against subcutaneous pentylenetetrazol-induced seizures at 300 mg/kg, ip after 0.5 hr; type: functional, organism-based; design: dose 300 mg/kg
Mus musculus [9] = test: as §1; type: toxicity, organism-based; settings: in vivo, 4 h
Mus musculus [10] = test: Anticonvulsant activity in Mus musculus albino (mouse) assessed as protection against maximal electroshock-induced seizures at 300 mg/kg, ip after 0.5 hr; type: functional, organism-based; design: dose 300 mg/kg
Mus musculus [11] = test: Anticonvulsant activity in Mus musculus albino (mouse) assessed as protection against maximal electroshock-induced seizures at 300 mg/kg, ip after 4 hr; type: functional, organism-based; design: dose 300 mg/kg
Mus musculus [12] = test: Anticonvulsant activity in Mus musculus albino (mouse) assessed as protection against subcutaneous pentylenetetrazol-induced seizures at 300 mg/kg, ip after 4 hr; type: functional, organism-based; design: dose 300 mg/kg
Mus musculus [13] = test: Anticonvulsant activity in ip dosed Mus musculus albino (mouse) assessed as protection against subcutaneous pentylenetetrazol-induced seizures; type: functional
Mus musculus [14] = test: Anticonvulsant activity in ip dosed Mus musculus albino (mouse) assessed as protection against maximal electroshock-induced seizures; type: functional
Mus musculus [15] = species on record: Mus musculus; test: Protective index, ratio of TD50 for Mus musculus albino (mouse) to ED50 for Mus musculus albino (mouse) by maximal electroshock-induced seizures test; type: functional
Mus musculus [16] = test: Protective index, ratio of TD50 for Mus musculus albino (mouse) to ED50 for Mus musculus albino (mouse) by subcutaneous pentylenetetrazol-induced seizures test; type: functional
Mus musculus [17] = test: Hepatoxicity in Mus musculus albino (mouse) assessed as effect on SGOT level in serum at 3 to 30 mg/kg, ip; type: toxicity, organism-based; design: dose 3-30 mg/kg, route intraperitoneal; settings: in vivo
Mus musculus [18] = test: Hepatoxicity in Mus musculus albino (mouse) assessed as effect on SGPT level in serum at 3 to 30 mg/kg, ip; type: toxicity, organism-based; design: dose 3-30 mg/kg, route intraperitoneal; settings: in vivo
Mus musculus [19] = test: Hepatoxicity in Mus musculus albino (mouse) assessed as effect on alkaline phosphatase level in serum at 3 to 30 mg/kg, ip; type: toxicity, organism-based; design: dose 3-30 mg/kg, route intraperitoneal; settings: in vivo

Structure (SMILES) | MTD at 4 h [1] [mg/kg] | MTD at 0.5 h [2] [mg/kg] | minimal effective dose (Mus musculus [3]) [mg/kg] | minimal effective dose (Mus musculus [4]) [mg/kg] | minimal effective dose (Mus musculus [5]) [mg/kg] | minimal effective dose (Mus musculus [6]) [mg/kg] | MTC (Mus musculus [7]) [mg/kg] | Activity (Mus musculus [8]) | MTC (Mus musculus [9]) [mg/kg] | Activity (Mus musculus [10]) | Activity (Mus musculus [11]) | Activity (Mus musculus [12]) | ED50 (Mus musculus [13]) [mg/kg] | ED50 (Mus musculus [14]) [mg/kg] | Ratio TD50/ED50 (Mus musculus [15]) | Ratio TD50/ED50 (Mus musculus [16]) | TD50 at 0.5 h [2] [mg/kg] | Activity (Mus musculus [17]) | Activity (Mus musculus [18]) | Activity (Mus musculus [19])
COc1ccc(Nc2nnc(Nc3nc(-c4ccc(Cl)cc4)cs3)s2)cc1 | 300 | 300 | 300 | 100 | 100 | 300 | – | – | – | – | – | – | – | – | – | – | – | – | – | –
COc1ccccc1Nc1nnc(Nc2nc(-c3ccc([N+](=O)[O-])cc3)cs2)s1 | 300 | – | 300 | 300 | – | 300 | 300 | inactive | – | – | – | – | – | – | – | – | – | – | – | –
COc1ccccc1Nc1nnc(Nc2nc(-c3ccc(Cl)cc3)cs2)s1 | – | – | 300 | – | – | 100 | 300 | inactive | 300 | inactive | – | – | – | – | – | – | – | – | – | –
O=[N+]([O-])c1ccc(-c2csc(Nc3nnc(Nc4ccccc4)s3)n2)cc1 | 300 | – | – | 100 | – | – | 100 | inactive | – | – | inactive | inactive | – | – | – | – | – | – | – | –
COc1ccccc1Nc1nnc(Nc2nc(-c3ccc(Br)cc3)cs2)s1 | – | – | – | 300 | – | 300 | 300 | inactive | 100 | – | inactive | – | – | – | – | – | – | – | – | –
Cc1ccccc1Nc1nnc(Nc2nc(-c3ccc(Br)cc3)cs2)s1 | 300 | – | 300 | 300 | – | 300 | 100 | inactive | – | – | – | – | – | – | – | – | – | – | – | –
O=C1NC(=O)C(c2ccccc2)(c2ccccc2)N1 [PHENYTOIN] | – | – | 30 | 30 | – | – | 100 | inactive | 100 | – | – | inactive | > 300 | – | – | – | – | – | – | –
COc1ccc(Nc2nnc(Nc3nc(-c4ccccc4)cs3)s2)cc1 | 300 | – | 100 | 100 | – | 300 | 300 | inactive | – | – | – | – | – | – | – | – | – | – | – | –
Brc1ccc(-c2csc(Nc3nnc(Nc4ccccc4)s3)n2)cc1 | – | – | – | 300 | – | – | 300 | inactive | 300 | – | inactive | inactive | – | – | – | – | – | – | – | –
CCC1(c2ccccc2)C(=O)NC(=O)NC1=O [PHENOBARBITAL] | – | – | 30 | 100 | – | – | 100 | inactive | 300 | – | – | inactive | 13.2 | 21.8 | – | – | – | – | – | –
CCCC(CCC)C(=O)O [VALPROIC ACID] | – | – | – | – | – | – | – | – | – | – | – | – | 149 | – | – | – | – | – | – | –
Cc1ccccc1Nc1nnc(Nc2nc(-c3ccc(Cl)cc3)cs2)s1 | 300 | 300 | 300 | 300 | – | – | – | inactive | – | – | – | inactive | – | – | – | – | – | – | – | –
CCC1(C)CC(=O)NC1=O (stereo unspecified) [ETHOSUXIMIDE] | 300 | 300 | – | – | 100 | 300 | – | – | – | inactive | inactive | – | > 100 | 8.8 | 8.1 | <0.2 | 71.6 | – | – | –
Clc1ccc(-c2csc(Nc3nnc(Nc4ccccc4)s3)n2)cc1 | 300 | 300 | 300 | – | – | – | – | inactive | – | inactive | – | inactive | – | – | – | – | – | – | – | –
COc1ccc(Nc2nnc(Nc3nc(-c4ccc(Br)cc4)cs3)s2)cc1 | 300 | 300 | 100 | 30 | 100 | – | – | – | – | – | – | inactive | 79.4 | 27.6 | 25.8 | 8.9 | 713 | Toxic | Toxic | Toxic
Cc1ccccc1Nc1nnc(Nc2nc(-c3ccc([N+](=O)[O-])cc3)cs2)s1 | – | – | 100 | 100 | – | 300 | 100 | inactive | 300 | – | – | – | – | – | – | – | – | – | – | –
Cc1ccccc1Nc1nnc(Nc2nc(-c3ccccc3)cs2)s1 | – | 300 | – | 300 | – | – | – | inactive | 300 | – | inactive | inactive | – | – | – | – | – | – | – | –
COc1ccc(Nc2nnc(Nc3nc(-c4ccc([N+](=O)[O-])cc4)cs3)s2)cc1 | 300 | 300 | 30 | 30 | – | 100 | – | inactive | – | – | – | – | 433 | 12.6 | 43.6 | 1.2 | 550 | Toxic | Toxic | Toxic
COc1ccccc1Nc1nnc(Nc2nc(-c3ccccc3)cs2)s1 | 300 | 300 | 300 | 100 | 100 | 300 | – | – | – | – | – | – | – | – | – | – | – | – | – | –
Cc1ccc(Nc2nnc(Nc3nc(-c4ccc(Br)cc4)cs3)s2)cc1 | – | – | 100 | 100 | 300 | 300 | 300 | – | 300 | – | – | – | – | – | – | – | – | – | – | –
Cc1ccc(Nc2nnc(Nc3nc(-c4ccc(Cl)cc4)cs3)s2)cc1 | 300 | 300 | 100 | 300 | – | 300 | – | inactive | – | – | – | – | – | – | – | – | – | – | – | –
Cc1ccc(Nc2nnc(Nc3nc(-c4ccccc4)cs3)s2)cc1 | 300 | 300 | 100 | 100 | 300 | – | – | – | – | – | – | inactive | – | – | – | – | – | – | – | –
c1ccc(Nc2nnc(Nc3nc(-c4ccccc4)cs3)s2)cc1 | – | 300 | – | 300 | – | 100 | – | inactive | 300 | – | inactive | – | – | – | – | – | – | – | – | –
Cc1ccc(Nc2nnc(Nc3nc(-c4ccc([N+](=O)[O-])cc4)cs3)s2)cc1 | 300 | 300 | 100 | 30 | 300 | – | – | – | – | – | – | inactive | 232 | 19.1 | 11.3 | 0.9 | 216 | Toxic | Toxic | Toxic
